# How the values were obtained:
# [1] = cited from earlier work
# [2] = system: A549 alveolar epithelial cells; experiment: alveolar epithelial cell wound repair model (in vitro epithelial wound-healing assay); format: cell-based, human; conditions: mechanically wounded monolayer, FIG. 4
# Experimental: In the present studies an alveolar epithelial cells wound repair model was employed. […] Closure of this wound was monitored over 24 hours following treatment.
# The wound healing assays were performed utilising A549 alveolar epithelial cells. The epithelial repair activity was determined using an in-vitro epithelial wound-healing assay as described in Example 1 (Geiser T et al. Am J Respir Crit. Care Med. 2001; 163: 1384-1388) using human A549 alveolar epithelial-like cells (American Type Culture Collection, Rockville, Md.). Briefly, A549 epithelial cells were cultured to confluency in 12-well plates for 48 hours in minimal essential medium (MEM) containing 10% fetal bovine serum and then mechanically wounded with a pipette tip. Concentrated BALF from each patient was added to the wounded epithelial monolayers (experiments performed in triplicates) and the area of the wound was measured over a time period of 24 hours.
# [3] = system: Transforming Growth Factor (TGF)-β-Connective Tissue Growth Factor (CTGF) interactions via a Rho signalling pathway; conditions: recent studies, refs 1 and 2; cited from earlier work
Compound,solubility in acetonitrile ([1]; acetonitrile),solubility in ethanol ([1]; ethanol),solubility in methanol ([1]; methanol),solubility in water ([1]; water),wound closure [2],"anti-fibrotic potential (TGF-β-CTGF interactions, pro-fibrotic differentiation) [3]"
"CCC(C)C(=O)OC1CC(C)C=C2C=CC(C)C(CCC3CC(O)CC(=O)O3)C21 (stereo not drawn) [Lovastatin, [8-[2-(4-hydroxy-6-oxo-oxan-2-yl)ethyl]-3,7-dimethyl-1,2,3,7,8,8a-hexahydronaphthalen-1-yl]2-methylbutanoate]",sparingly soluble,sparingly soluble,sparingly soluble,insoluble,–,–
"CCC(C)(C)C(=O)O[C@H]1C[C@@H](C)C=C2C=C[C@@H](C)[C@H](CC[C@@H]3C[C@@H](O)CC(=O)O3)[C@H]21 [simvastatin, [(1S,3R,7R,8S,8aR)-8-[2-[(2R,4R)-4-hydroxy-6-oxo-oxan-2-yl]ethyl]-3,7-dimethyl-1,2,3,7,8,8a-hexahydronaphthalen-1 yl]2,2-dimethylbutanoate]",–,–,–,–,improves wound closure,over-riding Transforming Growth Factor (TGF)-β-Connective Tissue Growth Factor (CTGF) interactions
